# Reference: US11116210B2 (priority 2017, dated 2021)
# System: Female mosquitoes, Aedes aegypti
# Experiment: Y-tube olfactometer insect repellency assay
# Type: in vivo
# Set-up: key to Significance (attraction vs Control): NS—not significant; *, ** - significantly different; *, ** - significantly different
# Conditions: 98%
smiles,measurement,setting,value
"CCN(CC)C(=O)c1cccc(C)c1 [DEET, N,N-diethyl-3-methylbenzamide]","insect repellency, in words",,strongest repellency
same,Significance (attraction vs Control),vs mineral oil control,**
